Test results as given in article PMC7922564, “Molecular Insights into an Antibiotic Enhancer Action of New Morpholine-Containing 5-Arylideneimidazolones in the Fight against MDR Bacteria” (International Journal of Molecular Sciences, 2021).
Like-named read-outs stand apart in the source and are kept apart here.

Tests used:
K. aerogenes Ea-289 [1] = experiment: MIC reduction assay (antibiotic adjuvant), K. aerogenes Ea-289; format: cell-based, Klebsiella aerogenes;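 further: compound at no more than one quarter of its own MIC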
Protocol: At first, MIC values of compounds were determined (Table S15, Supplementary). Next, their abilities to reduce MICs of the AcrAB-TolC substrates doxycycline (a tetracycline-class antibiotic) and erythromycin were studied (Table S16, Supplementary).
(§1) A subset of compounds, namely 7, 12–16, 19, 20, was also examined for the potential to increase the effectiveness of the antibiotics chloramphenicol, erythromycin, doxycycline, and the fluoroquinolone antibiotic norfloxacin, which all are substrates for AcrAB-TolC in K. aerogenes. In addition to strain Ea-289, the adjuvant-like effect of the compounds was investigated in strain CM-64, which also overexpresses the AcrAB-TolC efflux pump, although it has no changes in porin content, and in the Ea-289 derivatives, i.e., Ea-294 and Ea-308, which are devoid of AcrAB (Table S17, Supplementary).
(§2) Initially, MICs of a series of imidazolone derivatives were assessed against susceptible (reference) and MDR strains of staphylococci. Next, MIC values of the aforementioned antibiotics were determined in the absence and presence of imidazolone derivatives to assess the chemosensitizing effect of these compounds. […] 5-arylideneimidazolones and 5-arylidenethiazolones, which precipitated after addition to bacterial suspension in MH II medium, were tested at the highest concentrations at which precipitation was not observed. […] Antibacterial activity of compounds and antibiotics ampicillin, vancomycin, ciprofloxacin, and erythromycin was recorded as the lowest concentration of molecules able to inhibit bacterial growth after 18 h incubation at 37 °C. The incubation of bacterial strains exposed to oxacillin paired with compounds tested was conducted at 35 °C and extended to 24 h due to frequent occurrence of heterogeneity among MRSA strains. The results are presented as activity gain (A) parameter which was calculated as ratio of MIC of a certain antibiotic (MICAnt) to its MICAnt+Comp, observed in combination with a tested compound (7, 12–16, 19, or 20; Equation (1)). (1) A=(MICAnt/MICAnt+Comp)
(§3) MIC values of 5-arylideneimidazolone derivatives were determined following CLSI recommendations as in the methods described for S. aureus (Section 3.3.1).

MRSA 19449 = experiment: MIC determination (microdilution), MRSA 19449; format: cell-based, Staphylococcus aureus; conditions: Staphylococcus aureus, MRSA, no precipitation
Protocol: (§4) Determination of MIC values, i.e., intrinsic antibacterial activity, of products and antibiotics (oxacillin, ampicillin, vancomycin, ciprofloxacin, and erythromycin) in the presence and absence of compounds tested was conducted by the use of a standard 2-fold microdilution method in cation-adjusted Mueller Hinton broth following the Clinical and Laboratory Standards Institute (CLSI) guidelines. The MIC values were detected using an Infinite M200 pro Tecan microplate reader (Tecan® France, SA-Lyon, France). MIC determinations were conducted in 96-well microtiter plates and repeated 3–4 times.
as §2

[2] = system: K. aerogenes Ea-289 (overexpression of AcrAB-TolC); experiment: MIC of compounds, K. aerogenes Ea-289; format: cell-based; conditions: Klebsiella aerogenes
Protocol: At first, MIC values of compounds were determined (Table S15, Supplementary). Next, their abilities to reduce MICs of the AcrAB-TolC substrates doxycycline (a tetracycline-class antibiotic) and erythromycin were studied (Table S16, Supplementary). […]
as §4, §3

S. aureus ATCC 25923 [3] = experiment: MIC determination (microdilution), S. aureus ATCC 25923; format: cell-based, Staphylococcus aureus; conditions: Staphylococcus aureus, ATCC25923, unstarred values of column MIC value/no precipitation; read-out: MIC value
Protocol: as §4, §2

S. aureus ATCC 25923 [4] = system: S. aureus ATCC 25923; design: method as in earlier work; conditions: published previously, cited from earlier work
[5] = system: AcrAB-TolC efflux pump in K. aerogenes strain Ea-289; design: method as in PMID 30691112; conditions: compound 100 µM; previously described; cited from earlier work
[6] = system: K. aerogenes Ea-294, Ea-308; design: method as in earlier work; conditions: doxycycline, chloramphenicol, norfloxacin, already published, cited from earlier work
[7] = system: K. aerogenes Ea-294, Ea-308 (devoid of AcrAB); experiment: MIC of compounds, K. aerogenes Ea-294, Ea-308; format: cell-based; conditions: Klebsiella aerogenes, read-out: Minimal Inhibitory Concentration (MIC)
Source text: as §1, §4, §3

K. aerogenes Ea-289 [8] = system: K. aerogenes Ea-289; design: method as in earlier work; conditions: doxycycline, chloramphenicol, norfloxacin, already published, cited from earlier work
S. aureus ATCC 25923 [9] = system: S. aureus ATCC 25923; design: method as in earlier work; conditions: starred (*) value; published previously; cited from earlier work
K. aerogenes CM-64 = system: K. aerogenes CM-64; design: method as in earlier work; conditions: doxycycline, chloramphenicol, norfloxacin, already published, cited from earlier work
[10] = system: K. aerogenes CM-64 (overexpression of AcrAB-TolC); experiment: MIC of compounds, K. aerogenes CM-64; format: cell-based; conditions: Klebsiella aerogenes, read-out: Minimal Inhibitory Concentration (MIC)
Source text: as §1, §4, §3

[11] = read-out: MIC value/no precipitation

Cl.NC1=N/C(=C\c2cccc3ccccc23)C(=O)N1CCCN1CCOCC1 [Compound 18, (Z)-5-(Naphthalen-1-ylmethylene)-2-Amino-3-(3-Morpholinopropyl)-Imidazol-4(5H)-one Hydrochloride]
A (activity gain) (K. aerogenes Ea-289 [1]; doxycycline): 1
A (activity gain) (K. aerogenes Ea-289 [1]; erythromycin): 1
melting point: 265 to 268 °C
MIC (MRSA 19449): 2000 µM
MIC [2, 11]: > 250 µM
MIC (S. aureus ATCC 25923 [3]): 1000 µM

NC1=N/C(=C\c2c3ccccc3cc3ccccc23)C(=O)N1CCCN1CCOCC1 [Compound 20]
MIC reduction (S. aureus ATCC 25923 [4]; oxacillin alone to oxacillin + compound): No effect
A (activity gain) (S. aureus ATCC 25923 [4]; oxacillin): 1
Inhibition efficiency (IE) towards extrusion of 1,2'-dNA [5]: 44%
MIC reduction ([6]; erythromycin + compound): No effect
A (activity gain) ([6]; erythromycin): 1
MIC [7]: 2000 µM
MIC reduction (K. aerogenes Ea-289 [8]; erythromycin + compound): No effect
A (activity gain) (K. aerogenes Ea-289 [8]; erythromycin): 1
MIC (MRSA 19449): 31.2 to 250 µM
MIC ([2]; read-out: Minimal Inhibitory Concentration (MIC)): > 2000 µM
no precipitation: highest possible concentration of a compound (due to precipitation) at which growth of bacteria was observed (S. aureus ATCC 25923 [9]): 0.0625 mM
MIC reduction (K. aerogenes CM-64; erythromycin + compound): No effect
A (activity gain) (K. aerogenes CM-64; erythromycin): 1
MIC [10]: > 2000 µM
MIC (S. aureus ATCC 25923 [3]): 31.2 to 250 µM

Cl.O=C1N=C(N2CCC(N3CCOCC3)CC2)S/C1=C\c1ccc2c(c1)Cc1ccccc1-2 [Compound 22, (Z)-5-((9H-Fluoren-2-yl)methylene)-2-(4-Morpholinopiperidin-1-yl)Thiazol-4-one Hydrochloride]
A (activity gain) (K. aerogenes Ea-289 [1]; doxycycline): 1
A (activity gain) (K. aerogenes Ea-289 [1]; erythromycin): 1
melting point: 244 to 246 °C
MIC (MRSA 19449): 31.2 to 250 µM
MIC [2, 11]: > 250 µM
MIC (S. aureus ATCC 25923 [3]): 62.5 µM

Cl.O=C1N=C(NCCCN2CCOCC2)S/C1=C\c1ccc2c(c1)Cc1ccccc1-2 [Compound 23, (Z)-5-((9H-Fluoren-2-yl)methylene)-2-((3-Morpholinopropyl)amino)Thiazol-4(5H)-one Hydrochloride]
A (activity gain) (K. aerogenes Ea-289 [1]; doxycycline): 1
A (activity gain) (K. aerogenes Ea-289 [1]; erythromycin): 1
melting point: 243 to 245 °C
MIC (MRSA 19449): 31.2 to 250 µM
MIC [2, 11]: > 62.5 µM
MIC (S. aureus ATCC 25923 [3]): 31.2 to 250 µM
